Reference: ChEMBL document CHEMBL1155608, “Malyngamides O and P from the sea hare Stylocheilus longicauda” (J Nat Prod, 2000)

Experiments:
Format in all cases: functional, cell-based
A549 = experiment: Cytotoxicity against human A549 cells
HT-29 = experiment: Cytotoxicity against human HT29 cells
P388 = experiment: Cytotoxicity against mouse P388 cells

Measured: IC50

CCCCCCC[C@@H](C/C=C/CCC(=O)N(C)C/C(=C\Cl)C/C(=C\C(=O)OC)OC)OC [MALYNGAMIDE O]
2 µg/mL: all assays above
